Reference: ChEMBL document CHEMBL1201862, “PubChem BioAssay data set” (2004)
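Cultured in 96-well plates, cells were exposed to test compound for 48 hours across five concentrations. Abbreviation: GI50, concentration required for 50% inhibition of growth.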 Activity calls are given as the source filed them. Rule as the data show it: active = GI50 up to about 1.1 µM and inactive = higher.

How the values were obtained:
Assay in all cases: growth of human tumour cells (NCI), 48 h
RXF 393 = test system: RXF 393
PC-3 = test system: PC-3
SF-268 = test system: SF-268
SF-539 = test system: SF-539
OVCAR-3 = test system: OVCAR-3
RPMI-8226 = test system: RPMI-8226
786-0 = test system: 786-0
CAKI-1 = test system: CAKI-1
MDA-MB-435 = test system: MDA-MB-435
COLO 205 = test system: COLO 205
NCI-H23 = test system: NCI-H23
EKVX = test system: EKVX
SK-MEL-28 = test system: SK-MEL-28
HL-60 = test system: HL-60
T47D = test system: T47D
NCI-H522 = test system: NCI-H522
UACC-257 = test system: UACC-257
SK-MEL-2 = test system: SK-MEL-2

Measured: GI50

O=C1/C(=C/c2cccc3ccccc23)CCc2ccc([N+](=O)[O-])cc21
inactive: RXF 393 23.4 µM | PC-3 24.5 µM | SF-268 33.7 µM | SF-539 21.5 µM | OVCAR-3 3.22 µM | RPMI-8226 11.8 µM | 786-0 23.3 µM | CAKI-1 24.8 µM | MDA-MB-435 6.71 µM | COLO 205 34 µM | NCI-H23 67.5 µM | EKVX 47 µM | SK-MEL-28 16.6 µM | HL-60 8.83 µM | T47D 21 µM

CC(C)Sc1nncc(/C(N)=N/O)n1
inactive: RXF 393 > 100 µM | PC-3 > 100 µM | SF-268 > 100 µM | SF-539 > 100 µM | OVCAR-3 > 100 µM | RPMI-8226 > 100 µM | 786-0 > 100 µM | CAKI-1 > 100 µM | NCI-H522 > 100 µM | MDA-MB-435 > 100 µM | COLO 205 > 100 µM | UACC-257 > 100 µM | NCI-H23 > 100 µM | EKVX > 100 µM | SK-MEL-28 > 100 µM | T47D > 100 µM

O=C(N/C(=C\NC1=NCCS1)C(=O)N1CSC[C@@H]1C(=O)O)c1ccccc1
inactive: RXF 393 > 100 µM | PC-3 > 100 µM | SF-268 > 100 µM | SF-539 > 100 µM | OVCAR-3 > 100 µM | RPMI-8226 > 100 µM | 786-0 77.8 µM | CAKI-1 > 100 µM | MDA-MB-435 > 100 µM | COLO 205 > 100 µM | UACC-257 > 100 µM | NCI-H23 > 100 µM | EKVX > 100 µM | SK-MEL-28 > 100 µM | HL-60 > 100 µM | T47D > 100 µM

COc1cc(C=O)cc(/C=N/n2c3ccccc3c3ccccc32)c1O
inactive: RXF 393 25 µM | PC-3 5.41 µM | SF-268 4.34 µM | SF-539 4.32 µM | OVCAR-3 45.2 µM | RPMI-8226 5.01 µM | 786-0 11.9 µM | CAKI-1 31.8 µM | NCI-H522 33.6 µM | MDA-MB-435 4.05 µM | COLO 205 18.8 µM | UACC-257 26.8 µM | NCI-H23 39.6 µM | EKVX 43.1 µM | SK-MEL-28 5.83 µM | HL-60 5.81 µM | T47D > 100 µM

C=C(C)CNC(=S)N(N)c1ccc2ccccc2c1
inactive: RXF 393 > 100 µM | PC-3 61.1 µM | SF-268 78 µM | SF-539 > 100 µM | OVCAR-3 88.5 µM | RPMI-8226 > 100 µM | 786-0 > 100 µM | NCI-H522 46.6 µM | MDA-MB-435 72.3 µM | COLO 205 > 100 µM | UACC-257 > 100 µM | NCI-H23 > 100 µM | EKVX 24.7 µM | SK-MEL-28 > 100 µM | HL-60 57.3 µM | T47D 24.2 µM

C=C(C)C1=CCC[C@]2(C1)N=C(OC)[C@@H](C(C)C)N=C2OC
inactive: PC-3 > 100 µM | SF-268 > 100 µM | SF-539 > 100 µM | OVCAR-3 > 100 µM | RPMI-8226 16.3 µM | 786-0 > 100 µM | SK-MEL-2 > 100 µM | CAKI-1 > 100 µM | NCI-H522 31.3 µM | MDA-MB-435 40.1 µM | COLO 205 > 100 µM | UACC-257 > 100 µM | NCI-H23 > 100 µM | EKVX > 100 µM | SK-MEL-28 > 100 µM | HL-60 28.3 µM | T47D > 100 µM

COC(=O)[C@H]1[C@@H](C(C)C)O[C@@H](C(C)C)O[C@H]1C(F)(F)F
inactive: RXF 393 > 100 µM | PC-3 > 100 µM | SF-268 > 100 µM | SF-539 > 100 µM | OVCAR-3 > 100 µM | RPMI-8226 > 100 µM | 786-0 > 100 µM | CAKI-1 > 100 µM | NCI-H522 > 100 µM | MDA-MB-435 > 100 µM | COLO 205 > 100 µM | UACC-257 > 100 µM | NCI-H23 > 100 µM | EKVX > 100 µM | SK-MEL-28 > 100 µM | HL-60 > 100 µM | T47D > 100 µM

CC(=O)CC(=O)CCCC(=O)Nc1ccc(Cl)cc1Cl
inactive: SF-268 > 100 µM | SF-539 > 100 µM | OVCAR-3 > 100 µM | RPMI-8226 > 100 µM | 786-0 > 100 µM | SK-MEL-2 > 100 µM | CAKI-1 > 100 µM | NCI-H522 > 100 µM | COLO 205 > 100 µM | UACC-257 > 100 µM | NCI-H23 > 100 µM | SK-MEL-28 > 100 µM | HL-60 > 100 µM
